Legend:
[1] = target: T1, DGKα (hDGKalpha(1-735)-N-His) (Homo sapiens, UniProt P23743); assay: In vitro DGK inhibition assay, DGKalpha ADP Glo (in house); format: biochemical; conditions: 4 nM DGKα, 25 μM ATP, 125 uM DLG in liposomes, 1 hour reaction
T1 construct: hDGKalpha(1-735)-N-His; His (N); made in house; host or cells: Sf21 insect cells (baculovirus)
Description: (§1) DGKα and ζ kinases use ATP to phosphorylate the substrate 1,2-dilauroyl-sn-glycerol (DLG, incorporated in the liposomes). ATP is converted to ADP as a result of this enzymatic reaction. After the kinase reaction, an ATP-depletion reagent is added to terminate the kinase reaction and deplete any remaining ATP, leaving only ADP. Second, a detection reagent is added to simultaneously convert ADP to ATP and allow the newly synthesized ATP to be converted to light using a coupled luciferase/luciferin reaction.
(§2) Full length DGKα and ζ were expressed in Sf21 insect cells by infecting the cells with the baculovirus stock at MOI of 2. Purification of both enzymes was performed as previously described by Takahashi et al., PeerJ, 2018 (Takahashi, D.; Sakane, F. Expression and purification of human diacylglycerol 5 kinase alpha from baculovirus-infected insect cells for structural studies. PeerJ2018, 6, No. e5449).
(§3) A concentrated liposome solution was prepared in assay buffer without DTT and BSA: 2 mM of DLG in 21 mM of total liposome (2 mM DLG/8 mM PS/11 mM PC). The reaction mixtures contain the assay buffer with a final DLG concentration of 125 uM ATP concentrations of 25 μM (for DGKA assay) or 50 μM (for DGKZ assay). The reactions were started by addition of DGK α and ζ kinases at 4 nM and 2 nM final concentrations, respectively. After 1 hour reaction, the amount of ADP formed was detected with the ADP-Glo kinase assay (Promega) according to the manufacturer instructions. Compounds were added in 11-points dose response, starting at […], 1:3 dilutions, with a final DMSO concentration of 2%. The multidrop combi was used as a liquid handler and luminescence was read with 0.5 s by the envision reader (PE).

[2] = target: T2, DGKζ (hDGKzeta(1-928)-N-His) (Homo sapiens, UniProt Q13574); assay: In vitro DGK inhibition assay, DGKzeta ADP Glo (in house); format: biochemical; conditions: 2 nM DGKζ, 50 μM ATP, 125 uM DLG in liposomes, 1 hour reaction
T2 construct: hDGKzeta(1-928)-N-His; His (N); made in house; host or cells: Sf21 insect cells (baculovirus)
Description: as §1, §2, §3

DGK α kinase = target: T3, DGK α kinase (Homo sapiens, UniProt P23743); assay: DGKalpha kinase ADP Glo assay run by Reaction Biology Corp.; format: biochemical; conditions: 2 nM kinase, 50 µM ATP, 500 μM DLG, 10-dose duplicate
T3 construct: purchased Reaction Biology Corp. (contract assay service)
Description: (§4) DGK α and ζ kinases use ATP to phosphorylate the substrate 1,2-dilauroyl-sn-glycerol (DLG). ATP is converted to ADP as a result of this enzymatic reaction.
(§5) After the kinase reaction, an ATP-depletion reagent is added to terminate the kinase reaction and deplete any remaining ATP, leaving only ADP. Second, a detection reagent is added to simultaneously convert ADP to ATP and allow the newly synthesized ATP to be converted to light using a coupled luciferase/luciferin reaction.
(§6) DGK α and ζ kinase ADP Glo assays were ran by Reaction Biology Corp., 1 Great Valley Parkway, Suite 2, Malvern, 19355, PA, USA. Information provided by the service provider are the following: DGK α and ζ kinases were used at 2 nM final concentration. Reactions were carried out at 50 µM ATP. 500 μM of the substrate DLG (Dilauroyl-sn-glycerol) was used.

DGK ζ kinase = target: T4, DGK ζ kinase (Homo sapiens, UniProt Q13574); assay: DGKzeta kinase ADP Glo assay run by Reaction Biology Corp.; format: biochemical; conditions: 2 nM kinase, 50 µM ATP, 500 μM DLG, 10-dose duplicate
T4 construct: purchased Reaction Biology Corp. (contract assay service)
Description: as §4, §5, §6

primary human T-cells = assay: Proliferation assay (5 days, CellTiter-Glo, CD3-stimulated T-cells); format: cell-based
In short: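 Expanded primary human T-cells, 100 k cells/well, were stimulated with plate-coated CD3 antibody (donor-titrated) and given compound in a 5 or 6 pt dose response from 20 μM or 10 μM final top, 0.2% DMSO final. ATP was read by CellTiter-Glo after 5 days. EC50 and Emax were reported as % of 20 μM reference compound A1.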

T2 sequence (Q13574 whole entry): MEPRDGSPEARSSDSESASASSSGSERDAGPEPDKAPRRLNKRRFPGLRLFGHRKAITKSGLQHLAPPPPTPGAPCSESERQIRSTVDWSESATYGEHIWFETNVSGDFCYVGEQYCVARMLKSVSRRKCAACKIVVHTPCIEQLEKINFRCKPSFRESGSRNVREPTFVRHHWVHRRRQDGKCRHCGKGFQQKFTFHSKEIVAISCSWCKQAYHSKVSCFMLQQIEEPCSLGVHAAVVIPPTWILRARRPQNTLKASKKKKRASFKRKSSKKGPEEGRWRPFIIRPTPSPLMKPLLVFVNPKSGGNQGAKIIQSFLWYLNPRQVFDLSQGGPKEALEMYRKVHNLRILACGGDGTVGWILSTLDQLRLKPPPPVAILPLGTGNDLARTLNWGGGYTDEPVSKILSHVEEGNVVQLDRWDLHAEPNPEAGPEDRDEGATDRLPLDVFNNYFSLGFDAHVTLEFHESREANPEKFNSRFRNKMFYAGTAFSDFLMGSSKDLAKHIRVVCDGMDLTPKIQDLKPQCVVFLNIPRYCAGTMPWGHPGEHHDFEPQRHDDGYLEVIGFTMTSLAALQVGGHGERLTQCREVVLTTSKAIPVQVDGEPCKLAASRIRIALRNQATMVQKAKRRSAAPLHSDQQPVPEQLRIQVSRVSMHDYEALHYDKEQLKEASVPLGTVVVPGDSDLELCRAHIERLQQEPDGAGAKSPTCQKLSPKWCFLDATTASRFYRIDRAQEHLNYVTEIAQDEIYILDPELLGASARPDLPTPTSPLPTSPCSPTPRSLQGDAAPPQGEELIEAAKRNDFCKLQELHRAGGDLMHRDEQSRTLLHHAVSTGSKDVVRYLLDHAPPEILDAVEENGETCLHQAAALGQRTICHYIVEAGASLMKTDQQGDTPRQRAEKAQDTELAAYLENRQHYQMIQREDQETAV
T4 sequence (Q13574 whole entry): as above
T3 sequence (P23743 whole entry): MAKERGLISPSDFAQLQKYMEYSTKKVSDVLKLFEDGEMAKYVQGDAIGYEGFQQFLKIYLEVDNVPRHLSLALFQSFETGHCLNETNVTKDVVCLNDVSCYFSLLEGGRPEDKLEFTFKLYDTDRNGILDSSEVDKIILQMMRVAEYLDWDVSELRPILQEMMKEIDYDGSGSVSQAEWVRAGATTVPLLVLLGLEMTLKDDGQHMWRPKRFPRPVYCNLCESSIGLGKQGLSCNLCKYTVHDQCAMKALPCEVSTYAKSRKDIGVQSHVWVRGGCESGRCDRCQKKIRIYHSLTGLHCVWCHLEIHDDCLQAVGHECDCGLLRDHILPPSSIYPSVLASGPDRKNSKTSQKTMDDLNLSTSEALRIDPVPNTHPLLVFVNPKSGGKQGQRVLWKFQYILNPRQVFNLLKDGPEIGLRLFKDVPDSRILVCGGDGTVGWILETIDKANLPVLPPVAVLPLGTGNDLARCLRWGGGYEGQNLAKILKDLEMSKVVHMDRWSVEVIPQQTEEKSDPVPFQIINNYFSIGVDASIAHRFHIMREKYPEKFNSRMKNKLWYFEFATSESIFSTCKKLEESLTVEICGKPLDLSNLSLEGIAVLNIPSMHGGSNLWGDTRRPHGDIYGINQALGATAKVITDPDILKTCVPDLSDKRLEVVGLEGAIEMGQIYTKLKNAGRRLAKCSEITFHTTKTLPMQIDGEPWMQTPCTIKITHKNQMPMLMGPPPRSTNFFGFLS
T1 sequence (P23743 whole entry): as above

IC50 [1]: 17800 nM | IC50 [2]: 3100 nM | IC50 (DGK α kinase): 227 nM | IC50 (DGK ζ kinase): 365 nM
Structure (SMILES): CN1CCCC(F)(c2nnc(-c3ccc4c(c3)N(Cc3ccc(-c5noc(C(F)(F)F)n5)cc3)C(=O)[C@@H](N)CS4(=O)=O)o2)C1 (stereo partly drawn) [Example 49, (3R)-3-amino-7-[5-(3-fluoro-1-methyl-3-piperidyl)-1,3,4-oxadiazol-2-yl]-1,1-dioxo-5-[[4-[5-(trifluoromethyl)-1,2,4-oxadiazol-3-yl]phenyl]methyl]-2,3-dihydro-1λ^6,5-benzothiazepin-4-one]
Emax proliferation (% activation) (primary human T-cells; CD3 condition, normalised to DMSO (neutral) and 20 μM reference compound A1 = 100%): 86 % activation | EC50 (primary human T-cells; Homo sapiens, T-cell, 120 h, CD3-stimulated primary human T-cells, 5 days, CellTiter-Glo, fitted sigmoidal curve, read-out: Tcell Proliferation CD3 EC50): 122 nM

Reference: US20260138976A1 (Hoffmann-La Roche Inc., priority 2022, published 2026)
